Data on three molecules can be found in patent US20250092401A1, “COMBINATION THERAPY FOR TREATING HEPATITIS B VIRUS INFECTIONS” (GLAXOSMITHKLINE INTELLECTUAL PROPERTY DEVELOPMENT LIMITED, priority 2022, published 2025).

Data set [1] relates to HBV HBsAg. Kind of data set: HBsAg reduction in HBV infected primary human hepatocytes (ELISA). It is filed as cell-based. Particulars: Hepatitis B virus, Hepatocyte. As to the method:
The potency (pIC50) of Compound A for reduction of HBV HBsAg was investigated in primary human hepatocytes (PHH) from three donors. HBV infected PHH samples were treated with Compound A for 21 days and secreted HBsAg was measured using an ELISA assay to determine the % inhibition and average potency of the replicates (two per PHH donor).
(§1) The antiviral activity of Compound A was evaluated in in vitro HBV systems: (1) HepAD38, a hepatoma cell line with inducible expression of HBV, (2) primary human hepatocytes (PHHs) infected with HBV, and in vivo in infected male C57BL/6 mice with AAV-HBV. Overall there is a correlation between in vitro potency (HepAD38 & PHHs) and AAV-HBV in vivo model HBsAg inhibition.

Data set [2] deals with primary human hepatocytes (PHH). Kind of data set: Visual examination for cell toxicity in PHH. The data set is classed as cell-based. Particulars: HBV infected PHH, 21 days treatment.
Data set [3] in a line: Toxicity evaluation incl. nerve toxicity, 28 days of dosing, rats. It is filed as in vivo. The following applies: 28 days of dosing followed by 6 week off dose period. On the procedure: (§2) Studies were conducted to evaluate toxicity, including additional endpoints investigating nerve toxicity of Compound A after 28 days of dosing followed by a 6 week off dose period in rats and monkeys.

Data set [4] in a line: Toxicity evaluation incl. nerve toxicity, 28 days of dosing, monkeys. The data set is classed as in vivo. The following applies: 28 days of dosing followed by 6 week off dose period. On the procedure:
as §2

Data set [5] relates to HBV HBsAg. Kind of data set: HBsAg reduction in HepAD38 cell line (HBsAg ELISA). The data set is classed as cell-based, hepatitis B virus (HBV). The following applies: Hepatitis B virus; for EC50: HePAD38, 168 h, read-out: HBsAg (EC50). On the procedure: HepAD38 cells were maintained in collagen-coated flasks in cell culture medium (DMEM/F12 containing 10% fetal bovine serum (FBS), GlutaMax-1, penicillin/streptomycin, non-essential amino acids, Na pyruvate, 250 μg/mL geneticin, and 1 μg/mL doxycycline). Compound solutions were prepared in DMSO and compounds were serially diluted for final concentrations of 4000, 1000, 250, 62.5, 15.6, 3.91, 0.977, 0.244, 0.061, and 0.015 nM. The cells were then trypsinized and the cells were plated at 10,000 cells per well. Plates were incubated at 37° C., 5% CO2 for 4 days. Media was replaced with new media with compound treatment. The plates were then incubated at 37° C., 5% CO2 for an additional 3 days for a total treatment time of 7 days. For antiviral response, HBsAg was measured using the HBsAg ELISA kit (International Immuno-diagnostics) with instructions provided. 100 μL of cell media samples was used for ELISA. The absorbance was read on the SPECTRAMAX 384 plate reader (Molecular Devices) at 450 nm. For cell toxicity, the cells were used for CELLTITER-GLO Luminescent Cell Viability Assay reagent (Promega). The luminescence was read on Envision Multilabel Reader (Perkin Elmer). The data was analyzed compared to the DMSO control.
% inhibition=(1−(unknown/high control))*100
The average % inhibition values from duplicate assay plates were then plotted in GraphPad Prism to determine one EC value: Four-parameter logistic curve with equation Y=Bottom+(Top-Bottom)/(1+10^((Log EC50−X)*Hillslope))
as §1

Data set [6] has as its target PAPD5 (Homo sapiens, UniProt Q8NDF8). Kind of data set: PAPD5 A15 RNA SPA biochemical assay. As to the method: (§3) Dose-response studies were conducted for Compound A and RG7834 in the PAPD5 and PAPD7 A15 RNA SPA formats. Four different batches of Compound A and two different batches of RG7834 were used in both assays. Reactions contained 5 uM ATP, 0.0025 uCi/uL 3H-ATP, 50 nM A15 RNA, 10 nM enzyme in assay buffer (20 mM Tris 7.5, 3 mM CHAPS, 0.05% dBSA, 10 mM MgCl2, 1 mM DTT, 25 mM KCl). Reaction product was detected using SPA bead mix, final concentrations were 1 mg/mL PEI-PS, 1.25 mM ATP, 11.25 mM EDTA. End point signal detection correlated with slopes of reaction time courses. Curve fitting was performed using 4-parameter fitting in ActivityBase software.

Data set [7] addresses PAPD7 (Homo sapiens, UniProt Q5XG87). Kind of data set: PAPD7 A15 RNA SPA biochemical assay. Particulars: 10 nM enzyme, 5 uM ATP, 50 nM A15 RNA; read-out: average pIC50 PAPD7 (converted). On the procedure:
as §3

The subject of data set [8] is AAV-HBV. Kind of data set: AAV-HBV mouse model, mono-treatment. It is filed as in vivo, male C57BL/6 mice. The following applies: for HBsAg reduction: within one week of treatment, sustained. On the procedure:
After 28 days of infection with AAV-HBV, mono-treatment of the infected male C57BL/6 mice with either Compound A or bepirovirsen was initiated. […] HBsAg reduction for the 3 and 30 mg/kg Compound A dose groups was close to 1 log and 1 log, respectively, within one week of treatment and reduction levels were sustained throughout the duration of the treatment period. […] The maximum observed reduction in HBeAg was 0.5 log at 30 mg/kg Compound A. There was a small reduction (0.26 to 0.40 log) in HBV DNA at the 3 and 30 mg/kg Compound A dose levels when compared to the combined vehicle group. […]

Data set [9] deals with AAV-HBV. Kind of data set: AAV-HBV mouse model, sequential treatment. The data set is classed as in vivo, male C57BL/6 mice. Particulars: 30 mg/kg Compound A alone. The source says:
After 35 days of infection with AAV-HBV, sequential treatment of the infected male C57BL/6 mice began first with Compound A followed by bepirovirsen.
[…], reductions in HBsAg was observed, reaching a maximum reduction of over 1 log and nearly 2 logs, respectively, by the second week. This reduction was statistically significant when compared to the combined vehicle group.

The conditions of data set [10]: preclinical; terminated in Phase 1 clinical trials due to toxicity; cited from earlier work.

Structures are written as SMILES. ≈ marks a conversion by molar mass, not a printed value. Where “and” joins values, the source holds several entries; their conditions need not be identical. Equal entries are not always repeated. Where two headings read alike, the source gives them in different places. Some results are limits rather than exact numbers.

Sequence of PAPD5 (Q8NDF8 whole entry): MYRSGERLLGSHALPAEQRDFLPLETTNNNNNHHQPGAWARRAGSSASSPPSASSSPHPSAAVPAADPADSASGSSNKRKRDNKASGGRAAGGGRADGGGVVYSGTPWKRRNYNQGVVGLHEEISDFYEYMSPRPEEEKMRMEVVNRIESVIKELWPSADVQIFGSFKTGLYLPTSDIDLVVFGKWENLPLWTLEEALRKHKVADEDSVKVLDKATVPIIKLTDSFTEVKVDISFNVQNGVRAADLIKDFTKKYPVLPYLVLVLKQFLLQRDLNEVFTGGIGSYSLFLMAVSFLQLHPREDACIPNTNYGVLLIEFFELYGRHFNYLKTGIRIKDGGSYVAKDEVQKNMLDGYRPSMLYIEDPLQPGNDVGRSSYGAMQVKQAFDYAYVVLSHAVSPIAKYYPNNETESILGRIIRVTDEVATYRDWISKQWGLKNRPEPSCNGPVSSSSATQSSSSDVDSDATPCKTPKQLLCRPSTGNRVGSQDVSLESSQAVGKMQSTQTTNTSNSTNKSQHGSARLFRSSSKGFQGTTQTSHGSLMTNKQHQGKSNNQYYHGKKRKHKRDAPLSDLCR
Sequence of PAPD7 (Q5XG87 whole entry): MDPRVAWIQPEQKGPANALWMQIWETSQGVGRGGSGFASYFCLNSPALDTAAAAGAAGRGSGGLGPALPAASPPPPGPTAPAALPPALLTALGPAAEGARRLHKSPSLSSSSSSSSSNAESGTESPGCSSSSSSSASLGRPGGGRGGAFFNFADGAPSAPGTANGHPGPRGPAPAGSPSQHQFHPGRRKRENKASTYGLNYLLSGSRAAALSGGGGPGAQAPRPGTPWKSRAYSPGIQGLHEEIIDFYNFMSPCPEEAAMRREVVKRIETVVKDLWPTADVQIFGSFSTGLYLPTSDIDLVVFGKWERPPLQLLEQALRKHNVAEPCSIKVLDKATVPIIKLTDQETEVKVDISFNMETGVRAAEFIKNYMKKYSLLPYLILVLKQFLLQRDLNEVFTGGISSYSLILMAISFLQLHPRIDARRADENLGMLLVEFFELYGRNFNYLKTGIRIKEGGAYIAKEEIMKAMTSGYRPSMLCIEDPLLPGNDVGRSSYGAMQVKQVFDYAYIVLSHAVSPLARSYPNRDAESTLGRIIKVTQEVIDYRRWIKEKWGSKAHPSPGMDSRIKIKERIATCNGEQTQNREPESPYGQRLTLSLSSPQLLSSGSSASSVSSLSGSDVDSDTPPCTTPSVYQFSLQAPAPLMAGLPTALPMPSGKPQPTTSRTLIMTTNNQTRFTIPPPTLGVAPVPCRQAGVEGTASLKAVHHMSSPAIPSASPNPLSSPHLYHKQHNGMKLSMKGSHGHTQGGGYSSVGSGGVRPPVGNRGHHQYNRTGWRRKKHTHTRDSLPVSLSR

Regarding `COCCCOc1cc2c(nc1Cl)-c1cc(=O)c(C(=O)O)cn1[C@H]1[C@@H]2CCC1(C)C` [Compound A], the IC50 in [1] is 0.00095 µg/mL and 2.19 nM; in data set [1] (504 h, read-out: average pIC50 for reduction of HBV HBsAg (converted)) it was 0.832 nM; in data set [5] (HePAD38), 0.00056 µg/mL and 1.3 nM; in data set [6] (10 nM enzyme, 5 uM ATP, 50 nM A15 RNA, read-out: average pIC50 PAPD5 (converted)), 12.6 nM; in data set [7] it was 20 nM; in data set [8] (Mus musculus) it was 5.8e-05 µg/mL and 0.13 nM. Also, the IC90 in data set [1] (read-out: Calculated IC90) is 8.55 ng/mL (≈ 0.0198 µM); in data set [5] (HePAD38, read-out: Calculated IC90) it was 5.04 ng/mL (≈ 0.0116 µM); in data set [8] (Mus musculus, read-out: Calculated IC90) it was 0.522 ng/mL (≈ 0.00121 µM). Besides, the “cell toxicity (visual examination)” value in [2] is “no detected sign of cell toxicity”. Further, the “no adverse effect dose” value in data set [3] and in data set [4] was “No adverse effect doses were established” throughout. Moreover, the EC50 in [5] was found to be 0.3 nM. In addition, in data set [6] (PAPD5 and PAPD7 assays (FIG. 2)), the “more potent than RG7834 by” value was over 0.5 log. Moreover, the “reduction in HBsAg” value is “minimal reduction in HBsAg” in data set [8] (Compound A 0.3 mg/kg, over the course of treatment) and about 1 log in data set [9] (within one week, stable up to 28 days, statistically significant). The “HBsAg reduction compared to the combined vehicle group” value in data set [8] (Compound A 3 mg/kg or 30 mg/kg) is on record as “statistically significant HBsAg reduction”. The HBsAg reduction in data set [8] (Compound A 3 mg/kg) is about 1 log; in [8] (Compound A 30 mg/kg), 1 log. Also, in data set [8] (Compound A 30 mg/kg), the “maximum observed reduction in HBeAg” value was found to be 0.5 log. Moreover, the HBsAg levels off-treatment entry in data set [8] (Compound A, following one week off-treatment) was “rebounded to baseline”. The “effect on levels of HBeAg” value in [8] (during treatment with Compound A, stabilized after day 7, rebounded within one week after end) is on record as “dose dependent reduction”. Besides, the HBsAg off-treatment entry in [9] (within one week off-treatment) is “rebounded to baseline”.
With `Cc1cc2c(cc1OCC1COC1)CC1(CCC1)n1cc(C(=O)O)c(=O)cc1-2` [Compound B, reference compound], in [5], the EC50 is 3 nM.
Consider `COCCCOc1cc2c(cc1OC)-c1cc(=O)c(C(=O)O)cn1[C@H](C(C)C)C2` [RG7834, reference compound], for which, in data set [5], the EC50 came out at 2 nM. Further, the “no adverse effect dose” value in data set [10] is recorded as “no adverse effect dose could not be established”.
